Test results taken from PMC4822341 (Cell Discovery, 2015).

How the values were obtained:
GR = target: T1, GR (Homo sapiens, UniProt P04150); experiment: MMTV-Luc induction reporter assay in AD293 cells; format: cell-based; conditions: 16 h
T1 construct: expressed in transfected cells; host or cells: AD293
T1 sequence (P04150 1-777): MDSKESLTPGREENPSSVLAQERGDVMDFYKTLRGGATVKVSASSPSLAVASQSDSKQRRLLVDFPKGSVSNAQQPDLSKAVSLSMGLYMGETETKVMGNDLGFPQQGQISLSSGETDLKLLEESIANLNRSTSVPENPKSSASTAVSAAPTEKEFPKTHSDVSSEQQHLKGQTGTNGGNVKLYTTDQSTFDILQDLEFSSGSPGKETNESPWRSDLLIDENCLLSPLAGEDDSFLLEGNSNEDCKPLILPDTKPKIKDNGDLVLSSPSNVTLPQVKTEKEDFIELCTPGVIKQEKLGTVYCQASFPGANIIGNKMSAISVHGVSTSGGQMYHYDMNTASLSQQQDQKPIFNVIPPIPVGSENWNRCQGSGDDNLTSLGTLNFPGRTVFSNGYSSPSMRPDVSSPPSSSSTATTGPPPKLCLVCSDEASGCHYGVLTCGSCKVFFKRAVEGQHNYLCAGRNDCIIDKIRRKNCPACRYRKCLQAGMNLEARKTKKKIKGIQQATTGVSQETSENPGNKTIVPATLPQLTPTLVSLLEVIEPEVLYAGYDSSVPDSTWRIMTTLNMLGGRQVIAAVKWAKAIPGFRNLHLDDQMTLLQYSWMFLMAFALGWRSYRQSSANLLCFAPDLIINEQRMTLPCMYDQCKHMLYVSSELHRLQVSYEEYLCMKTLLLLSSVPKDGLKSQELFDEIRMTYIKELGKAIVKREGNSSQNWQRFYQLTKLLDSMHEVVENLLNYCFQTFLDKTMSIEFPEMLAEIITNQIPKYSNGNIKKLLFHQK
Method: Similar to previous reports, for induction 100 ng pHHLuc (MMTV-Luc) plasmid, 0.1 ng pRShGR together with 5 ng phRGtkRenilla were transfected by X-tremeGENE 9 (Roche) into AD293 cells per well in 24-well plate. For transrepression, 10 ng AP-1-Luc or 10ng pNF-κB-luc, 100 ng pRShGR and 5 ng phRGtkRenilla were transfected into AD293 cells per well. We used the same transfection protocol for the MR and PR assays, except of the use of 0.1 ng MR or PR plasmid to substitute GR. One day after transfection, for induction, cells were directly treated by steroids for 16 h; for repression, cells were treated with either PMA at 0.6 ng ml^–1 (for AP-1 reporter) or TNFα at 2 ng ml^–1 (for NF-κB reporter), together with various steroids. Cells were collected by addition of 1× Passive Lysis Buffer (Promega, Madison, WI, USA), and luciferase activity was assayed by the Dual-Glo Luciferase system (Promega). Data were plotted as firefly luciferase activity normalized to Renilla luciferase activity in Relative Luciferase Units.

[1] = test system: IL-6 release from A549 cells; experiment: Cytokine inhibition assay, IL-6 release from A549 cells; format: cell-based; conditions: Homo sapiens, TNFα 2 ng ml^-1, read-out: IC50 (suppression of IL-6 release)
Method: A549 cells into 24-well plates were split at 40 000 cells/well. After 1 day growth, cells were treated with various steroids 1 h before overnight induction of inflammation by 2 ng ml^–1 TNFα according to literature. Sixteen hours after treatment, cell culture supernatants were subjected to anti-IL-6 Elisa (R&D Quantikine Elisa Human IL-6 Kit) according to the manual.

RAW264.7 cells = experiment: Gene expression (microarray and quantitative PCR) in LPS-stimulated RAW264.7 cells; format: cell-based, mouse; conditions: RAW264.7, LPS, steroid 100 nM
Method: Mouse macrophage RAW264.7 cells were grown in 6-well plates to reach 80% confluence. The cells were pretreated with different steroids at 100 nM 1 h before overnight induction of inflammation by 1 μg ml^–1 LPS. Total RNA was isolated using a Qiagen mini RNA extraction kit (Valencia, CA, USA). Complementary DNA was synthesized from total RNA with an Invitrogen Superscript cDNA synthesis kit (Carlsbad, CA, USA). Target genes were quantified with a Power SYBR Green Real-Time PCR kit (Carlsbad, CA, USA) (ABI) in a StepOnePlus real-time PCR instrument (Applied Biosystems, Carlsbad, CA, USA). In every case, GAPDH (glyceraldehyde-3-phosphate dehydrogenase) was used as an internal control and data were analyzed by the ΔΔCt method. The specificity of target primers was tested both in a dissociation (melting) curve (Supplementary Figure S4) and against a water control. Primer sequence information is included in Supplementary Figure S4.
RAW264.7 cells were treated with designated steroids at 100 nM 1 h before overnight LPS stimulation of inflammation. Each treatment was duplicated. The following day, RNA samples were isolated using a Qiagen mini RNA extraction kit and applied to the Agilent Whole Mouse Genome 8x60K gene expression platform. Data were analyzed by the limma package in R program. Heat maps were generated by the HeatMap 2 package. Pathway analysis was done via DAVID Bioinformatics Resources 6.7 (NIAID) and Venn diagrams were generated by BioVenn.

[2] = Body weight (growth inhibition) of DBA/1 mice; format: in vivo; conditions: 0.0625 mg kg^-1 daily, 2 weeks
Method: Figure 5 Examination of side effects of VSGC12 and FF at the effective dose. (a) Body weight of DBA/1 mice treated with the indicated daily dose of steroids for 2 weeks. Mice body weight was measured at day 0, 7 and 14. (b) Insulin-tolerance test of mice treated with the indicated daily doses of steroids for 7 days. Glucose level was measured at day 7 at various time points before and after insulin injection. Data were plotted as percent of the glucose level of time 0. (c) Plasma insulin levels of mice treated with the indicated daily doses of steroid for 7 days. (d) Spleen size and weight for mice treated with the indicated daily doses of steroid for 2 weeks. (e) Cortical bone thickness of femurs of mice treated with the indicated daily doses of steroid for 2 weeks. (f) Bone stiffness of femurs of mice treated with the indicated daily doses of steroid for 2 weeks. Mouse strain: DBA/1. Each treatment n=5, error bars indicate s.e.m., *P<0.05; **P<0.01; ***P<0.001.

SMILES: CON(C)C(=O)C1(OC(=O)c2ccco2)C(C)CC2C3CC(F)C4=Cc5c(cnn5-c5ccccc5)CC4(C)C3(F)C(O)CC21C (centres unmarked) [VSGC12]
- EC50 (GR): 0.51 nM
- IC50 [1]: 0.05 nM
- inhibition activity of pro-inflammatory cytokines (microarray, normalized to DEX) (RAW264.7 cells): much stronger inhibition activity than DEX
- repression activity on pro-inflammatory cytokines by quantitative PCR (RAW264.7 cells): much higher repression activity on IL-1β, IL-6 and IL-33 than FF and DEX
- growth inhibition (body weight) [2]: did not cause a significant growth inhibition
